Reference: patent US10428101B2, “Preparation of glycosphingosines” (The Regents of the University of California, priority 2013, dated 2019)
Marks after values point to notes of the source that are not given here.

Columns and labels:
[1] = target: Pasteurella multocida α2-3-sialyltransferase 1 E271F/R313Y mutant (PmST1 E271F/R313Y) (Pasteurella multocida, UniProt Q15KI8, E271F/R313Y); details: for Conversion (%): acceptor lactoside to Neu5Acα2-3 product, OPME sialylation pH 8.5, assayed at 4 h, TLC and ImageQuant 5.2
Chain of Pasteurella multocida α2-3-sialyltransferase 1 E271F/R313Y mutant (PmST1 E271F/R313Y) (Q15KI8 26-412 E271F/R313Y): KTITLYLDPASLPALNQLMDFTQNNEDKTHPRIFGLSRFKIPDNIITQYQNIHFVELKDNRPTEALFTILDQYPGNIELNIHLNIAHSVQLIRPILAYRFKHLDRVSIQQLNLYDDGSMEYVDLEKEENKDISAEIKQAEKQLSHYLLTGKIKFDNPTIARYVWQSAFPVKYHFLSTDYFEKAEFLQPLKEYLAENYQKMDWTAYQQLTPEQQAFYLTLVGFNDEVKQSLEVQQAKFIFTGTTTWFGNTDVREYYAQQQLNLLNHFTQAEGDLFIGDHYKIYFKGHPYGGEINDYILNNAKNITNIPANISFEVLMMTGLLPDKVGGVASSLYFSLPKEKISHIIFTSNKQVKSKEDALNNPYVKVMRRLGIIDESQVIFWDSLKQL
Description: To test the suitability of lactoside 1 as an acceptor sugar, a one-pot two-enzyme system containing PmST1 E271F/R313Y and Neisseria meningitidis CMP-sialic acid synthetase (NmCSS) (Scheme 2) was used.
To increase the solubility of the fluorous-tagged lactosides and to examine how the length of the fluorous tags affects the efficiency of the enzymatic reactions, fluorous-tagged lactosides (2-4) (Scheme 1) containing a propylamide linker and different lengths of fluoroalkyl chains were synthesized and used as the acceptor sugars in a one-pot two-enzyme system containing NmCSS and PmST1 E271F/R313Y (Scheme 3).
The reactions were monitored by TLC (EtOAc:MeOH:H2O:AcOH=5:2:1:0.1).

[2] = Water solubility of fluorous-tagged lactoside; format: physicochemical; details: qualitative statement
[3] = target: Photobacterium damselae α2-6-sialyltransferse (Pd2,6ST) (Photobacterium damselae, UniProt O66375); test: One-pot two-enzyme α2-6-sialylation of fluorous-tagged lactoside acceptors (NmCSS + Pd2,6ST), conversion by TLC/ImageQuant; format: biochemical; details: acceptor lactoside to Neu5Acα2-6 product; OPME sialylation pH 8.5; assayed at 4 h; TLC and ImageQuant 5.2
Chain of Photobacterium damselae α2-6-sialyltransferse (Pd2,6ST) (O66375 entry or part of it): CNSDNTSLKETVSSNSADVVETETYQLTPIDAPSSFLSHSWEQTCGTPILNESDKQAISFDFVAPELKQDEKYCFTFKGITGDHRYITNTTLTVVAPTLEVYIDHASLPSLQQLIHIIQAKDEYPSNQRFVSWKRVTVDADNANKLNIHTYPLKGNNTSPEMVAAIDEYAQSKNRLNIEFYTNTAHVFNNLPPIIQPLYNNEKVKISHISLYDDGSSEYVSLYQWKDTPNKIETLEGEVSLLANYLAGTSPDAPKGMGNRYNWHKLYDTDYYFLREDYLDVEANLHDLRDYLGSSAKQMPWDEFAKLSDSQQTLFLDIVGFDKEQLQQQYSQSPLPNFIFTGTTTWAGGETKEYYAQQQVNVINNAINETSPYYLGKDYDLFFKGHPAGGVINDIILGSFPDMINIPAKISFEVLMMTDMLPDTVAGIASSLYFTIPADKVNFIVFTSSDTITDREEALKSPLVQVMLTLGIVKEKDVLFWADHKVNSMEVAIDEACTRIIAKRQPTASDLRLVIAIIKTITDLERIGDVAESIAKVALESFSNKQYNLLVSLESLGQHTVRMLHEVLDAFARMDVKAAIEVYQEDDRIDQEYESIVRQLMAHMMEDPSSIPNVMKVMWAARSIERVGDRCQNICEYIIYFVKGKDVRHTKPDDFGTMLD
Description: B: One-pot two-enzyme sialylation reaction with Pd2,6ST.
Reaction conversion rates were determined by staining the TLC plates with p-anisaldehyde sugar stain and then using ImageQuant 5.2 software to compare the relative intensities between the glycosylation product spot and the lactoside acceptor spot of each reaction (FIG. 1). For external standard comparison, each lactoside acceptor spot was also compared with its corresponding standard 10 mM stock solution spot to verify the conversion rates of each reaction.
Pd2,6ST (0.72 μg) was added to a 0.5 mL centrifuge tube containing 0.01μmol (1 eq.) of a lactoside acceptor (chosen from 1-8), Neu5Ac (1.2 eq.), CTP (2 eq.), Tris-HCl buffer (100 mM, pH 8.5), MgCl2 (20 mM), NmCSS (0.08 μg), and water (total volume=10 μL). The reactions were monitored by TLC (EtOAc:MeOH:H2O:AcOH=5:2:1:0.1).

| Substance | sialylated product detected (trace amount) ([1]; one-pot two-enzyme system PmST1 E271F/R313Y and NmCSS, by TLC and MALDI-TOF) | water solubility [2] | Conversion (%) [1] | Conversion (%) [3] |
| --- | --- | --- | --- | --- |
| LacβC8F17 [Compound 1] | < 10% | low |  |  |
| LacβProNH-C8F17 [Compound 2] |  |  | 22 ± 12^[b] % | 31 ± 18^[b] % |
| LacβProNH-HEG-C6F13 [Compound 8] |  |  | 80 ± 15^[b] % | 66 ± 25^[b] % |
| LacβProNH-HEG-C8F17 [Compound 6] |  |  | 55 ± 7.8^[b] % | 52 ± 5.6^[b] % |
| LacβProNH-TEG-C6F13 [Compound 7] |  |  | 70 ± 4.8^[b] % | 65 ± 7.9^[b] % |
| LacβProNH-TEG-C8F17 [Compound 5] |  |  | 65 ± 11^[b] % | 47 ± 10^[b] % |
| LacβProNH—C3F7 [Compound 4] |  |  | 89 ± 9.8^[b] % | qt.^[b] |
| LacβProNH—C6F13 [Compound 3] |  |  | 92 ± 5.5^[b] % | 94 ± 6.0^[b] % |
